Measurements from article PMC3997483, “Aminostyrylbenzofuran Directly Reduces Oligomeric Amyloid-β and Reverses Cognitive Deficits in Alzheimer Transgenic Mice” (PLoS ONE, 2014).
Values after ≈ are worked out from the molar mass of the structure shown. Where two headings read alike, the source gives them in different places. Marks after values point to notes of the source that are not given here.

Key:
[1] = Plasma and brain pharmacokinetics (BBB penetration) after PO in mice; type: in vivo; conditions: for AUC(0-t): read-out: AUC0–24h
Procedure: Pharmacokinetics profile of KMS88009 was obtained using ICR mice, SD rats, beagle dogs and cynomolgus monkeys. Animals were fasted overnight before KMS88009 administration. Mice were divided into 2 groups to receive KMS88009 as a single dose of 2.1 mg/kg intravenous (IV) bolus or 10 mg/kg orally (PO) by gavage. Additionally, KMS88009 was administered orally to estimate the BBB penetration in mice (10, 30 and 100 mg/kg). […] Dog received KMS88009 either as an IV bolus (1 mg/kg) via the great saphenous vein or by oral gavage (4 mg/kg). KMS88009 was administrated to monkeys as an IV bolus (1 mg/kg) via the femoral vein or by oral gavage (4 mg/kg). Vehicle for IV and PO administration was DMSO/tween-20/saline (3.3∶19.8∶[…]). […]. Brain samples were weighed and Daunce-homogenized in 10-fold volume of ice-chilled 4% bovine serum albumin (BSA) solution at room temperature. Plasma and brain homogenates were kept frozen at −70°C until analysis. The levels of KMS88009 were determined by the LC-MS/MS analysis. Pharmacokinetic parameters, time to the maximum concentration (Tmax), maximum concentration (Cmax), elimination half-life (T1/2), volume of distribution (Vd), clearance (Cl) and mean residual time (MRT), of KMS88009 were calculated based on plasma concentration-time data by a non-compartmental method using WinNonlin Version 5.2 (Pharsight, USA). Area under the curve from 0 to 24 hr (AUC0-24h) and area under the curve from 0 to infinity (AUCINF) were obtained by linear and log linear trapezoidal summations.

[2] = Solubility studies; type: physicochemical
Procedure: Solubility studies Solubility of KMS88009 in distilled water (DW), simulated gastric fluid (SGF, pH 1.2), simulated intestinal fluid (SIF, pH 6.8) and DMSO/tween-20/saline was determined. Excess amounts of KMS88009 were placed in screw-capped vials containing 2 mL of DW, SGF, SIF and DMSO/tween-20/saline. Suspensions were vortexed for 2 min and kept in a shaking water-bath at 37 °C. We transferred 250 μL of each sample to the filter insert of centrifuge tubes. After centrifugation at 16,000 rpm for 15 min, the filtrates of DW, SGF and SIF were analyzed by HPLC (Agilent 1200 series, USA). Values are expressed as the mean ± SD of 2 independent experiments.

[3] = Plasma stability; type: in vitro ADME; conditions: 37 °C
Procedure: Plasma stability studies Plasma stability of the KMS88009 was studied in human, dog, rat and mouse plasma. Each plasma from different species was diluted to 5-fold with 0.05 M phosphate buffered saline (PBS, pH 7.4 at 37 °C). We added KMS88009 to 1 mL of preheated plasma solution to yield a final concentration of 1 μM. The assay was performed in a shaking water bath at 37 °C and conducted in triplicate. Samples (50 μL) were taken at 0, 0.5, 1, 2 and 6 hr and added to 10 μL of 0.05% formic acid. The samples were subjected to vortex mixing for 1 min and centrifuged at 4 °C for 20 min at 14,000 rpm. The clear supernatants were analyzed by liquid chromatography/mass/mass spectrometry (LC-MS/MS). Values are expressed as the mean ± SD of 2 independent experiments. Stability is expressed as the percentage of remaining compound in % relative to the start concentration set to 100%.

[4] = Single dose oral toxicity study; type: in vivo; conditions: SD, rat, in vivo, po
Procedure: (§1) KMS88009 was orally administered by gavage at dose levels of 0 (vehicle), 1,000 and 2,000 mg/kg. Each group consisted of 3 rats. Vehicle was DMSO/tween-20/saline (3.3∶3.3∶93.4) mixture. Administration volume of vehicle and KMS88009 was 10 mL/kg. Mortality, physical abnormalities and signs of pain/distress were daily observed in all animals. Body weight of each animal was measured before the administration and on the 1st, 4th, 8th, 11th and 14th days.
(§2) All data for single and 2-week repeated oral dose toxicity studies were expressed as the mean ± SD Difference between control and treated groups were evaluated with one-way analysis of variance (ANOVA) followed by Dunnett's test. Value P<0.05 was taken as being statistically significant. Statistical analyses were performed using GraphPad Prism software (USA).

[5] = test system: SD rats; assay: Single dose oral toxicity study; type: in vivo; conditions: rats
Procedure: as §1, §2

[6] = ICR, mouse, brain, mice PO 10 mg/kg
[7] = ICR, mouse, brain, mice PO 30 mg/kg
[8] = ICR, mouse, brain, mice PO 100 mg/kg
[9] = ICR, mouse, plasma, mice PO 10 mg/kg
[10] = ICR, mouse, plasma, mice PO 30 mg/kg
[11] = ICR, mouse, plasma, mice PO 100 mg/kg

With `COc1ccc2cc(C=Cc3ccc(N(C)C)cc3)oc2c1` [KMS88009, 6-methoxy-2-(4-dimethylaminostyryl) benzofuran] the Kp ([1]; ICR, mouse, brain, mice, PO, read-out: Level (AUC0–24h) in the brain relative to plasma) was > 12, the Cmax [1, 6] was 6370 ng/g and the Tmax [1, 6] was 2 h. For the same molecule, the Cmax [1, 7] was 17800 ng/g, the Tmax [1, 7] was 4 h and the Cmax [1, 8] was 23300 ng/g. The Tmax [1, 8] was 10 h, the Cmax [1, 9] was 744 ng/mL and the Tmax [1, 9] was 1 h. For the same molecule, the AUC(0-t) [1, 9] was 4570 ng·h/mL, the Cmax [1, 10] was 1640 ng/mL and the Tmax [1, 10] was 1 h. For the same molecule, the AUC(0-t) [1, 10] was 13400 ng·h/mL, the Cmax [1, 11] was 2710 ng/mL and the Tmax [1, 11] was 2 h. The AUC(0-t) [1, 11] was 30500 ng·h/mL, the “AUC0–24h” value ([1]; brain, mice PO 10 mg/kg) was 55395.5 ng·h/g and the “AUC0–24h” value ([1]; brain, mice PO 30 mg/kg) was 205268.3 ng·h/g. For the same molecule, the “AUC0–24h” value ([1]; brain, mice PO 100 mg/kg) was 367538.5 ng·h/g, the solubility ([2]; DMSO/tween-20/saline, read-out: Solubility) was 583 µg/mL (≈ 1990 µM) and the solubility ([2]; DW (distilled water), 37 °C) was 0.000 mg/kg. It also gave a solubility ([2]; SIF, pH 6.8, 37 °C) of 0.000 mg/kg, a solubility ([2]; simulated gastric fluid (SGF), SGF, pH 1.2, 37 °C, read-out: Solubility) of 4 µg/mL (≈ 13.6 µM) and a Parent compound remaining ([3]; dog plasma, 0.5 hr) of 100.0%. For the same molecule, the Parent compound remaining ([3]; dog plasma, 1 hr) was 100.0%, the Parent compound remaining ([3]; dog plasma, 2 hr) was 100.0% and the Parent compound remaining ([3]; dog plasma, 6 hr) was 100.0%. It also gave a Parent compound remaining ([3]; human plasma, 0.5 hr) of 100.0%, a Parent compound remaining ([3]; human plasma, 1 hr) of 100.0% and a Parent compound remaining ([3]; human plasma, 2 hr) of 82.0%. It also gave a Parent compound remaining ([3]; human plasma, 6 hr) of 100.0%, a Parent compound remaining ([3]; mouse plasma, 0.5 hr) of 100.0% and a Parent compound remaining ([3]; mouse plasma, 1 hr) of 100.0%. The Parent compound remaining ([3]; mouse plasma, 2 hr) was 100.0%, the Parent compound remaining ([3]; mouse plasma, 6 hr) was 100.0% and the Parent compound remaining ([3]; rat plasma, 0.5 hr) was 86.9%. For the same molecule, the Parent compound remaining ([3]; rat plasma, 1 hr) was 93.7%, the Parent compound remaining ([3]; rat plasma, 2 hr) was 100.0% and the Parent compound remaining ([3]; rat plasma, 6 hr) was 100.0%. For the same molecule, the LD50 at 14 days [4] was > 2000 mg/kg, the “Mortality (dead animals / total number of animals)” value ([5]; single PO 1,000 mg/kg) was 0 / 3 ^a and the “Mortality (dead animals / total number of animals)” value ([5]; single PO 2,000 mg/kg) was 0 / 3.
